Source: patent US20230139171A1 (SITA Information Networking Computing UK Limited, priority 2019, published 2023)

What was measured:
human TLR8 = target: T1, human TLR8 (Homo sapiens, UniProt Q9NR97); experiment: TLR8 inhibition reporter assay (HEK-Blue cells, SEAP reporter, R848 stimulation); format: cell-based; settings: HEK-Blue cells overexpressing human TLR8, SEAP reporter, R848 15.9 μM; read-out: TLR8 IC50
T1 construct: host or cells: HEK-Blue cells
T1 sequence (Q9NR97 27-1041): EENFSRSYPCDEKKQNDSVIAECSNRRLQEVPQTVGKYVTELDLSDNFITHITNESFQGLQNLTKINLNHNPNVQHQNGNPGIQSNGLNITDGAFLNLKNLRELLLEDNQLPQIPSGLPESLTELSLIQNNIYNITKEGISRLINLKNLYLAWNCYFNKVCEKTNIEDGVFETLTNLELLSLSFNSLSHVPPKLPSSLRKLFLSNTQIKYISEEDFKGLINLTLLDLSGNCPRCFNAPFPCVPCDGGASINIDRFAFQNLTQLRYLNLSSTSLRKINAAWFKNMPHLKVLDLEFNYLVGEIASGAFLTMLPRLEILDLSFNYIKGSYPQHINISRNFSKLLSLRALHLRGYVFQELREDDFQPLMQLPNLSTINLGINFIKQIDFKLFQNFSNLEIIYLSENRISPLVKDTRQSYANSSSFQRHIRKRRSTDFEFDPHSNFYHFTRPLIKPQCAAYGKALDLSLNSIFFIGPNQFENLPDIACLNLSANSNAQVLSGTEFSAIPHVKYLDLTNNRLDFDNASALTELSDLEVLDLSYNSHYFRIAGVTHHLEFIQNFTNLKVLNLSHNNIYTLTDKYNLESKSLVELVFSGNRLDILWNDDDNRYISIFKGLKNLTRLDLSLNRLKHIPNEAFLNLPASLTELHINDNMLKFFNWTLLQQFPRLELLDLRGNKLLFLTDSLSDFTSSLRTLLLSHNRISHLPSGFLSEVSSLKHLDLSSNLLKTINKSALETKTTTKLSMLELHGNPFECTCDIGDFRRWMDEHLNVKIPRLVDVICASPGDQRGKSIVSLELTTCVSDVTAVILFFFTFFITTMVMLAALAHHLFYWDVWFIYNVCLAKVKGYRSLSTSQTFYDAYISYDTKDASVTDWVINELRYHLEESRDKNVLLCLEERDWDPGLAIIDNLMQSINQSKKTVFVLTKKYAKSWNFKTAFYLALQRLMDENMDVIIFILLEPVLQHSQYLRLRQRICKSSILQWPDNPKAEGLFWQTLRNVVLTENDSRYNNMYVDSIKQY
Procedure: (§1) TLR7/8/9 Inhibition Reporter Assays
(§2) HEK-Blue™-cells (Invivogen) overexpressing human TLR7, TLR8 or TLR9 receptors were used for screening inhibitors of these receptors using an inducible SEAP (secreted embryonic alkaline phosphatase) reporter gene under the control of the IFN-β minimal promoter fused to five NF-κB and AP-1-binding sites. Briefly, cells are seeded into Greiner 384 well plates (15000 cells per well for TLR7, 20,000 for TLR8 and 25,000 for TLR9) and then treated with test compounds in DMSO to yield a final dose response concentration range of 0.05 nM-50 μM. After a 30 minute compound pre-treatment at room temperature, the cells are then stimulated with a TLR7 ligand (gardiquimod at a final concentration of 7.5 μM), TLR8 ligand (R848 at a final concentration of 15.9 μM) or TLR9 ligand (ODN2006 at a final concentration of 5 nM) to activate NF-κB and AP-1 which induce the production of SEAP. After a 22 hour incubation at 37° C., 5% CO2, SEAP levels are determined with the addition of HEK-Blue™ Detection reagent (Invivogen), a cell culture medium that allows for detection of SEAP, according to manufacturer's specifications. The percent inhibition is determined as the % reduction in the HEK-Blue signal present in wells treated with agonist plus DMSO alone compared to wells treated with a known inhibitor.

human TLR7 = target: T2, human TLR7 (Homo sapiens, UniProt Q9NYK1); experiment: TLR7 inhibition reporter assay (HEK-Blue cells, SEAP reporter, gardiquimod stimulation); format: cell-based; settings: HEK-Blue cells overexpressing human TLR7, SEAP reporter, gardiquimod 7.5 μM; read-out: TLR7 IC50
T2 construct: host or cells: HEK-Blue cells
T2 sequence (Q9NYK1 27-1049): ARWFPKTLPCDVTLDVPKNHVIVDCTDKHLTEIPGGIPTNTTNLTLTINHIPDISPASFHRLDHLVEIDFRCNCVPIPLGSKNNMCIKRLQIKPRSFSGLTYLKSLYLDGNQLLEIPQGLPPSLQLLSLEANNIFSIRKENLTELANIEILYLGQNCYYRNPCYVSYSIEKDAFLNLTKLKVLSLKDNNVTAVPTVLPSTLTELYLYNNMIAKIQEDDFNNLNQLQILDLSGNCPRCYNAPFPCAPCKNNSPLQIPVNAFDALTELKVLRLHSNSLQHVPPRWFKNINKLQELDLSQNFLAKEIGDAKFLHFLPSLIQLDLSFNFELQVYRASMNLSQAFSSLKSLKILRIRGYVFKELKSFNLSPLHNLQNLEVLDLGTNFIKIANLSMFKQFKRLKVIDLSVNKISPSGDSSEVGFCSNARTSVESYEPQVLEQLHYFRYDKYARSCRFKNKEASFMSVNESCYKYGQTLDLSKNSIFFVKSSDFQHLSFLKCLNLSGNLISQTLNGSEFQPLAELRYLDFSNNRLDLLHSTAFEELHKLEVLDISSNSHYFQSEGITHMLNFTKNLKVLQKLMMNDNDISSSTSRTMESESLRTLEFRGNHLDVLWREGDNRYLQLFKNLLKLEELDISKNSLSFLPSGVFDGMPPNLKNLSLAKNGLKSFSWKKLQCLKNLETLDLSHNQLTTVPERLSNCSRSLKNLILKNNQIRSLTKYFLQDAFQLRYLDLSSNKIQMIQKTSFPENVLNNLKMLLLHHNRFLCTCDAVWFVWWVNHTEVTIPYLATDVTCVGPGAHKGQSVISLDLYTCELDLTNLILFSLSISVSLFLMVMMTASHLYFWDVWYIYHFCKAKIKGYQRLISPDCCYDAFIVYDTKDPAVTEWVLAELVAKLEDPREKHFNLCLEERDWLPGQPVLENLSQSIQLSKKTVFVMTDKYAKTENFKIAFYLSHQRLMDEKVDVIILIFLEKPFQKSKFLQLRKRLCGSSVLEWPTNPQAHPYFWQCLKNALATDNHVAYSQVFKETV
Procedure: as §1, §2

| Structure (SMILES) | IC50 (human TLR8) [nM] | IC50 (human TLR7) [nM] |
| --- | --- | --- |
| Cc1c(-c2[nH]c3sc(N4CCN(CC(C)(C)O)C[C@@H]4C)nc3c2C(C)C)cn2ncnc2c1C [Example 345, (S)-1-(4-(5-(7,8-dimethyl-[1,2,4]triazolo[1,5-a]pyridin-6-yl)-6-isopropyl-4H-pyrrolo[3,2-d]thiazol-2-yl)-3-methylpiperazin-1-yl)-2-methylpropan-2-ol] | 3.12 | 23.4 |
| Cc1c(-c2[nH]c3sc(N4CCN(C(=O)C5CCS(=O)(=O)CC5)C[C@@H]4C)nc3c2C(C)C)cn2ncnc2c1C [Example 347, (S)-(4-(5-(7,8-dimethyl-[1,2,4]triazolo[1,5-a]pyridin-6-yl)-6-isopropyl-4H-pyrrolo[3,2-d]thiazol-2-yl)-3-methylpiperazin-1-yl)(1,1-dioxidotetrahydro-2H-thiopyran-4-yl)methanone] | 44.5 | 22.9 |
| Cc1c(-c2[nH]c3sc(N4CCN(C5COC5)C[C@@H]4C)nc3c2C(C)C)cn2ncnc2c1C [Example 348, (S)-5-(7,8-dimethyl-[1,2,4]triazolo[1,5-a]pyridin-6-yl)-6-isopropyl-2-(2-methyl-4-(oxetan-3-yl)piperazin-1-yl)-4H-pyrrolo[3,2-d]thiazole] | 22.4 | 19.1 |
| Cc1c(-c2[nH]c3sc(N4CCN(C5CCC5)C[C@@H]4C)nc3c2C(C)C)cn2ncnc2c1C [Example 349] | 1.85 | 91 |
| Cc1cc(-c2[nH]c3sc(N4CCN(C(=O)CN(C)C)C[C@H]4C)nc3c2C(C)C)cn2ncnc12 [Example 360, (R)-2-(dimethylamino)-1-(4-(6-isopropyl-5-(8-methyl-[1,2,4]triazolo[1,5-a]pyridin-6-yl)-4H-pyrrolo[3,2-d]thiazol-2-yl)-3-methylpiperazin-1-yl)ethan-1-one] | 1330 | 1220 |
| Cc1c(-c2[nH]c3sc(C(=O)NCCCN4CCCC4=O)nc3c2C(C)C)cn2ncnc2c1C [Example 371, 5-(7,8-dimethyl-[1,2,4]triazolo[1,5-a]pyridin-6-yl)-6-isopropyl-N-(3-(2-oxopyrrolidin-1-yl)propyl)-4H-pyrrolo[3,2-d]thiazole-2-carboxamide] | 29.4 | 72.1 |
| Cc1c(-c2[nH]c3sc(C(=O)N4CCCC4)nc3c2C(C)C)cn2ncnc2c1C [Example 377, (5-(7,8-dimethyl-[1,2,4]triazolo[1,5-a]pyridin-6-yl)-6-isopropyl-4H-pyrrolo[3,2-d]thiazol-2-yl)(pyrrolidin-1-yl)methanone] | 18.2 | 56.9 |
| Cc1c(-c2[nH]c3sc(C(=O)N4CCNC(=O)C4)nc3c2C(C)C)cn2ncnc2c1C [Example 378, 4-(5-(7,8-dimethyl-[1,2,4]triazolo[1,5-a]pyridin-6-yl)-6-isopropyl-4H-pyrrolo[3,2-d]thiazole-2-carbonyl)piperazin-2-one] | 12.2 | 29.4 |
| Cc1c(-c2[nH]c3sc(C(=O)N4CCN(S(C)(=O)=O)CC4)nc3c2C(C)C)cn2ncnc2c1C [Example 384, (5-(7,8-dimethyl-[1,2,4]triazolo[1,5-a]pyridin-6-yl)-6-isopropyl-4H-pyrrolo[3,2-d]thiazol-2-yl)(4-(methylsulfonyl)piperazin-1-yl) methanone] | 20.1 | 39.5 |
| Cc1c(-c2[nH]c3sc(C(N)=O)nc3c2C(C)C)cn2ncnc2c1C [Example 385, 5-(7,8-dimethyl-[1,2,4]triazolo[1,5-a]pyridin-6-yl)-6-isopropyl-4H-pyrrolo[3,2-d]thiazole-2-carboxamide] | 31.4 | 58.8 |
| COc1cc(-c2[nH]c3sc(C(=O)NCC(F)(F)F)nc3c2C(C)C)cn2ncnc12 [Example 390, 6-isopropyl-5-(8-methoxy-[1,2,4]triazolo[1,5-a]pyridin-6-yl)-N-(2,2,2-trifluoroethyl)-4H-pyrrolo[3,2-d]thiazole-2-carboxamide] | 481 | 93.6 |
| Cc1cc(-c2[nH]c3sc(C(N)=O)nc3c2C(C)C)cn2ncnc12 [Example 391, 6-isopropyl-5-(8-methyl-[1,2,4]triazolo[1,5-a]pyridin-6-yl)-4H-pyrrolo[3,2-d]thiazole-2-carboxamide] | 118 | 102 |
| Cc1cc(-c2[nH]c3sc(C(=O)N4CCNC(=O)C4)nc3c2C(C)C)cn2ncnc12 [Example 392, 4-(6-isopropyl-5-(8-methyl-[1,2,4]triazolo[1,5-a]pyridin-6-yl)-4H-pyrrolo[3,2-d]thiazole-2-carbonyl)piperazin-2-one] | 404 | 241 |
| Cc1cc(-c2[nH]c3sc(C(=O)N4CCCC4)nc3c2C(C)C)cn2ncnc12 [Example 393, (6-isopropyl-5-(8-methyl-[1,2,4]triazolo[1,5-a]pyridin-6-yl)-4H-pyrrolo[3,2-d]thiazol-2-yl)(pyrrolidin-1-yl) methanone] | 140 | 77.6 |
| Cc1cc(-c2[nH]c3sc(C(=O)N4CCCOCC4)nc3c2C(C)C)cn2ncnc12 [Example 394, (6-isopropyl-5-(8-methyl-[1,2,4]triazolo[1,5-a]pyridin-6-yl)-4H-pyrrolo[3,2-d]thiazol-2-yl)(1,4-oxazepan-4-yl)methanone] | 529 | 154 |
| COC1CN(C(=O)c2nc3c(C(C)C)c(-c4cc(C)c5ncnn5c4)[nH]c3s2)C1 [Example 396, (6-isopropyl-5-(8-methyl-[1,2,4]triazolo[1,5-a]pyridin-6-yl)-4H-pyrrolo[3,2-d]thiazol-2-yl)(3-methoxyazetidin-1-yl)methanone] | 53.9 | 102 |
| Cc1cc(-c2[nH]c3sc(C(=O)NC4COC4)nc3c2C(C)C)cn2ncnc12 [Example 397, 6-isopropyl-5-(8-methyl-[1,2,4]triazolo[1,5-a]pyridin-6-yl)-N-(oxetan-3-yl)-4H-pyrrolo[3,2-d]thiazole-2-carboxamide] | 463 | 221 |
